Laboratory results taken from article PMC5700124 (Scientific Reports, 2017).
Where “and” joins values, the source holds several entries; their conditions need not be identical. Identical values can stand only once. Like-named read-outs stand apart in the source and are kept apart here.

How the values were obtained:
[1] = tested on: [^11C]mirtazepin binding in porcine brain; design: method as in Smith et al.[34]; conditions: ref Smith et al.[34], cited from earlier work
[2] = tested on: α2 adrenoceptor subtypes; design: method as in PMID 7908054; conditions: cited from earlier work
[3] = design: method as in Jakobsen et al.[14]; conditions: pigs; challenge, compared with yohimbine; ref Jakobsen et al.[14]; cited from earlier work
[4] = tested on: α2 adrenoceptors; design: method as in Jakobsen and colleagues[14]; conditions: porcine brain; low dose 0.15 mg/kg vs 0.7 mg/kg; ref Jakobsen and colleagues[14]; cited from earlier work
[5] = molecular target: α2 adrenoceptor; conditions: parieto-occipital cortex, pH 7.5, 25.0 °C, mg^2+ 1 mM, blocking of NS adrenaline 10 μM, cited from earlier work
[6] = molecular target: α2 adrenoceptor; design: method as in Rout et al.[32]; conditions: cortex, pH 7.0, 25.0 °C, blocking of NS noradrenaline 100 μM, ref Rout et al.[32], cited from earlier work
[7] = molecular target: α2 adrenoceptor; conditions: cerebral cortex, pH 7.4, 25.0 °C, mg^2+ 0, blocking of NS phentolamine 10 μM, cited from earlier work
[8] = tested on: α2 adrenoceptors; assay: Eadie-Hofstee Plot of PET binding potentials (receptor density Bmax and KD in vivo); design: species or system rat
Excerpt: The values of BPND enabled us to determine the α2 adrenoceptor density in vivo. As presented in Fig. 4A, we estimated values of receptor density, Bmax, and receptor affinity (1/KD) by means of Eadie-Hofstee plots. We calculated the bound quantity according to eq. 2, based on the information of the BPND and specific activity. We found the greatest receptor densities in thalamus, caudate putamen, and cortical areas, with the lowest densities in cerebellum and olfactory bulb as presented in Fig. 4B. The regional receptor densities are listed in detail in Table 2 and specific activity in Table 3.
We derived the present method from well-known principles of kinetics. We identified the following six steps to the determination of binding parameters of radioligands that achieve receptor occupancy. […] The variable B is the bound quantity of the ligand, and BPND is the binding potential of the radioligand at the specific degree of occupancy. To solve the equation of the Eadie-Hofstee plot for the two parameters, it is necessary to know the bound quantities of the ligand and the binding potentials in at least two conditions of different occupancy. The bound quantity is related to the binding potential by the relationship,2 B=M(BPND/1+BPND), where M is the total mass of the ligand per unit volume of brain tissue, calculated from the known specific activity of the radioligand.
The sixth and final step was the graphical solution to the Eadie-Hofstee Plot of eq. (1) (Eadie 1952, Hofstee 1952), where B is the bound quantity and BPND is the binding potential of ligands. We calculated the bound quantity from the relationship described by eq. 2.

[9] = tested on: α2 adrenoceptors; conditions: cited from earlier work
[10] = tested on: plasma proteins; conditions: in the circulation; cited from earlier work
[11] = tested on: α2 adrenoceptors; assay: PET of [^11C]yohimbine binding in rat brain at baseline and at challenge with unlabeled yohimbine; conditions: for Volumes of Distribution, VT, BASE: baseline; for Volumes of Distribution, VT, BASE / Volumes of Distribution, VT, COLD: individual rats 1-5; for Volumes of Distribution, VT, COLD: challenge with unlabeled yohimbine 0.3 mg/kg i.v.

For `COC1(C2=NCCN2)COc2ccccc2O1` (stereo not shown) [RX821002], the “reduction of [^11C]mirtazepin binding” value ([1]; 0.1 mg/kg) is given as 35%, the “reduction of [^11C]mirtazepin binding” value ([1]; 1 mg/kg) is given as “failed to inhibit the binding further” and the “affinity to α2 adrenoceptor subtypes” value [2] is given as “higher affinity to α2A and α2C than to α2B”. For the same compound, the “effect on CBF” value [3] was “opposite effect” and the “decline of VT of [^11C]yohimbine” value [4] was “greater decline of the value of VT than the higher dose of 0.7 mg/kg”.
For `COC1(C2=NCCN2)COc2ccccc2O1` (stereo not shown) [[^3H]RX821002], the Kd ([5]; ref Ribas et al.[7]) is given as 0.57 nM and the Kd ([5]; ref Ribas et al.[68]) is given as 0.5 nM.
In the case of `COC(=O)[C@@H]1[C@H]2C[C@H]3c4[nH]c5ccccc5c4CCN3C[C@@H]2CC[C@@H]1O` [[^3H]yohimbine], the Kd ([6]; mg^2+ 0 mM) is given as […], the Kd ([6]; mg^2+ 10 mM) is given as […] and the Kd ([7]; ref Brown et al.[44]) is given as 5.2 nM. The Kd ([7]; ref Brown et al.[45]) was 5.3 nM.
For `[11CH3]OC(=O)[C@@H]1[C@H]2C[C@H]3c4[nH]c5ccccc5c4CCN3C[C@@H]2CC[C@@H]1O` [[^11C]yohimbine], the “radioactive metabolites in plasma” value ([9]; data from two rats) is listed as “no radioactive metabolites”, the “fraction bound to plasma proteins” value [10] is listed as 82% and the “Volumes of Distribution, VT, BASE” value ([11]; CEREB cerebellum) is listed as […]. The “Volumes of Distribution, VT, COLD” value ([11]; CEREB cerebellum) was […], the “Volumes of Distribution, VT, BASE” value ([11]; CP caudate putamen) was […] and the “Volumes of Distribution, VT, COLD” value ([11]; CP caudate putamen) was […]. The “Volumes of Distribution, VT, BASE” value ([11]; HIPP hippocampus) was […], the “Volumes of Distribution, VT, COLD” value ([11]; HIPP hippocampus) was […] and the “Volumes of Distribution, VT, BASE” value ([11]; HYP hypothalamus) was […]. For the same compound, the “Volumes of Distribution, VT, COLD” value ([11]; HYP hypothalamus) was […], the “Volumes of Distribution, VT, BASE” value ([11]; MC motor cortex) was […] and the “Volumes of Distribution, VT, COLD” value ([11]; MC motor cortex) was […]. The “Volumes of Distribution, VT, BASE” value ([11]; OLF olfactory bulb) was […], the “Volumes of Distribution, VT, COLD” value ([11]; OLF olfactory bulb) was […] and the “Volumes of Distribution, VT, BASE” value ([11]; PFC prefrontal cortex) was […]. The “Volumes of Distribution, VT, COLD” value ([11]; PFC prefrontal cortex) was […], the “Volumes of Distribution, VT, BASE” value ([11]; SSC somatosensory cortex) was […] and the “Volumes of Distribution, VT, COLD” value ([11]; SSC somatosensory cortex) was […]. For the same compound, the “Volumes of Distribution, VT, BASE” value ([11]; THAL thalamus) was […], the “Volumes of Distribution, VT, COLD” value ([11]; THAL thalamus) was […] and the “time of peak uptake post-injection” value ([11]; cerebellum) was […]. For the same compound, the rate of escape ([11]; corresponding to K1 for a vascular volume of 0.02 ml/cm^3) was […] and the “time of peak accumulation post-injection” value ([11]; other brain regions) was […].
In the case of `CC(N)Cc1ccccc1` (stereo not shown) [amphetamine], the “change of VND(b) and fP of [^11C]yohimbine” value ([9]; amphetamine 2 mg/kg challenge) is listed as “did not change”.
